# Measurements reported in PubChem BioAssay AID1259407 (Chemical Carcinogenesis Research Information System (CCRIS), 2018).
# Activity calls are given as the source filed them. No rule for the calls is given here.
# System: CCRIS mutagenicity, Ames/micronucleus/aberration tests
# Experiment: CCRIS mutagenicity studies
smiles,measurement,setting,value
Oc1ccccc1O,mutagenic call,"End Point: IN VITRO CHROMOSOMAL ABERRATIONS, Test System: CHINESE HAMSTER V79 CELLS, Metabolic Activation: NONE",active; positive at ph 7.4 and 8.0
same,mutagenic call,"End Point: IN VITRO MICRONUCLEUS, Test System: CHINESE HAMSTER LUNG (CHL)/IU CELLS, Metabolic Activation: NONE",active; positive
same,mutagenic call,"Test System: AMES SALMONELLA TYPHIMURIUM, Strain/Indicator: TA97, Metabolic Activation: NONE, Method: PREINCUBATION",inactive; negative
same,mutagenic call,"Test System: AMES SALMONELLA TYPHIMURIUM, Strain/Indicator: TA97, Metabolic Activation: RAT, LIVER, S-9, AROCLOR 1254, Method: PREINCUBATION",inactive; negative
same,mutagenic call,"Test System: AMES SALMONELLA TYPHIMURIUM, Strain/Indicator: TA97, Metabolic Activation: RAT, LIVER, S-9, PHENOBARBITAL, Method: PREINCUBATION",inactive; negative
same,mutagenic call,"Test System: AMES SALMONELLA TYPHIMURIUM, Strain/Indicator: TA98, Metabolic Activation: HAMSTER, LIVER, S-9, AROCLOR 1254, Method: PREINCUBATION",inactive; negative
same,mutagenic call,"Test System: AMES SALMONELLA TYPHIMURIUM, Strain/Indicator: TA98, Metabolic Activation: NONE",inactive; negative
same,mutagenic call,"Test System: AMES SALMONELLA TYPHIMURIUM, Strain/Indicator: TA98, Metabolic Activation: NONE, Method: PREINCUBATION",inactive; negative
same,mutagenic call,"Test System: AMES SALMONELLA TYPHIMURIUM, Strain/Indicator: TA98, Metabolic Activation: RAT, LIVER, S-9, AROCLOR 1254, Method: PREINCUBATION",inactive; negative
same,mutagenic call,"Test System: AMES SALMONELLA TYPHIMURIUM, Strain/Indicator: TA98, Metabolic Activation: RAT, LIVER, S-9, PHENOBARBITAL, Method: PREINCUBATION",inactive; negative
same,mutagenic call,"Test System: AMES SALMONELLA TYPHIMURIUM, Strain/Indicator: TA98, Metabolic Activation: S-9",inactive; negative
same,mutagenic call,"Test System: AMES SALMONELLA TYPHIMURIUM, Strain/Indicator: TA100, Metabolic Activation: HAMSTER, LIVER, S-9, AROCLOR 1254, Method: PREINCUBATION",inactive; negative
same,mutagenic call,"Test System: AMES SALMONELLA TYPHIMURIUM, Strain/Indicator: TA100, Metabolic Activation: NONE, Method: FLUCTUATION TEST",active; positive
same,mutagenic call,"Test System: AMES SALMONELLA TYPHIMURIUM, Strain/Indicator: TA100, Metabolic Activation: NONE, Method: PREINCUBATION",inactive; negative
same,mutagenic call,"Test System: AMES SALMONELLA TYPHIMURIUM, Strain/Indicator: TA100, Metabolic Activation: RAT, LIVER, S-9, AROCLOR 1254, Method: PREINCUBATION",inactive; negative
same,mutagenic call,"Test System: AMES SALMONELLA TYPHIMURIUM, Strain/Indicator: TA100, Metabolic Activation: RAT, LIVER, S-9, PCB, Method: FLUCTUATION TEST",active; positive
same,mutagenic call,"Test System: AMES SALMONELLA TYPHIMURIUM, Strain/Indicator: TA100, Metabolic Activation: RAT, LIVER, S-9, PHENOBARBITAL, Method: PREINCUBATION",inactive; negative
same,mutagenic call,"Test System: AMES SALMONELLA TYPHIMURIUM, Strain/Indicator: TA102, Metabolic Activation: NONE, Method: PREINCUBATION",inactive; negative
same,mutagenic call,"Test System: AMES SALMONELLA TYPHIMURIUM, Strain/Indicator: TA102, Metabolic Activation: RAT, LIVER, S-9, AROCLOR 1254, Method: PREINCUBATION",inactive; negative
same,mutagenic call,"Test System: AMES SALMONELLA TYPHIMURIUM, Strain/Indicator: TA104, Metabolic Activation: NONE, Method: PREINCUBATION",inactive; negative
same,mutagenic call,"Test System: AMES SALMONELLA TYPHIMURIUM, Strain/Indicator: TA104, Metabolic Activation: RAT, LIVER, S-9, AROCLOR 1254, Method: PREINCUBATION",inactive; negative
same,mutagenic call,"Test System: AMES SALMONELLA TYPHIMURIUM, Strain/Indicator: TA1535, Metabolic Activation: HAMSTER, LIVER, S-9, AROCLOR 1254, Method: PREINCUBATION",inactive; negative
same,mutagenic call,"Test System: AMES SALMONELLA TYPHIMURIUM, Strain/Indicator: TA1535, Metabolic Activation: NONE, Method: PREINCUBATION",inactive; negative
same,mutagenic call,"Test System: AMES SALMONELLA TYPHIMURIUM, Strain/Indicator: TA1535, Metabolic Activation: RAT, LIVER, S-9, AROCLOR 1254, Method: PREINCUBATION",inactive; negative
same,mutagenic call,"Test System: AMES SALMONELLA TYPHIMURIUM, Strain/Indicator: TA1537, Metabolic Activation: HAMSTER, LIVER, S-9, AROCLOR 1254, Method: PREINCUBATION",inactive; negative
same,mutagenic call,"Test System: AMES SALMONELLA TYPHIMURIUM, Strain/Indicator: TA1537, Metabolic Activation: NONE, Method: PREINCUBATION",inactive; negative
same,mutagenic call,"Test System: AMES SALMONELLA TYPHIMURIUM, Strain/Indicator: TA1537, Metabolic Activation: RAT, LIVER, S-9, AROCLOR 1254, Method: PREINCUBATION",inactive; negative
same,mutagenic call,"Test System: Ames Salmonella typhimurium, Strain/Indicator: TA98, Metabolic Activation: None, Method: Preincubation",inactive; negative
same,mutagenic call,"Test System: Ames Salmonella typhimurium, Strain/Indicator: TA98, Metabolic Activation: Rat, Liver, S9, Sodium phenobarbital and 5,6-benzoflavone, Method: Preincubation",inactive; negative
same,mutagenic call,"Test System: Ames Salmonella typhimurium, Strain/Indicator: TA100, Metabolic Activation: None, Method: Preincubation",inactive; negative
same,mutagenic call,"Test System: Ames Salmonella typhimurium, Strain/Indicator: TA100, Metabolic Activation: Rat, Liver, S9, Sodium phenobarbital and 5,6-benzoflavone, Method: Preincubation",inactive; negative
same,mutagenic call,"Test System: Ames Salmonella typhimurium, Strain/Indicator: TA1535, Metabolic Activation: None, Method: Preincubation",inactive; negative
same,mutagenic call,"Test System: Ames Salmonella typhimurium, Strain/Indicator: TA1535, Metabolic Activation: Rat, Liver, S9, Sodium phenobarbital and 5,6-benzoflavone, Method: Preincubation",inactive; negative
same,mutagenic call,"Test System: Ames Salmonella typhimurium, Strain/Indicator: TA1537, Metabolic Activation: None, Method: Preincubation",inactive; negative
same,mutagenic call,"Test System: Ames Salmonella typhimurium, Strain/Indicator: TA1537, Metabolic Activation: Rat, Liver, S9, Sodium phenobarbital and 5,6-benzoflavone, Method: Preincubation",inactive; negative
same,mutagenic call,"Test System: CHINESE HAMSTER V-79, Strain/Indicator: V-79/6-THIOGUANINE, Metabolic Activation: NONE",active; positive
same,mutagenic call,"Test System: E. coli, Strain/Indicator: WP2uvrA/pKM101, Metabolic Activation: None, Method: Preincubation",inactive; negative
same,mutagenic call,"Test System: E. coli, Strain/Indicator: WP2uvrA/pKM101, Metabolic Activation: Rat, Liver, S9, Sodium phenobarbital and 5,6-benzoflavone, Method: Preincubation",inactive; negative
same,mutagenic call,"Test System: E. coli, Strain/Indicator: Wp2uvrA/pKM101, Metabolic Activation: None, Method: Preincubation",inactive; negative
same,mutagenic call,"Test System: E. coli, Strain/Indicator: Wp2uvrA/pKM101, Metabolic Activation: Rat, Liver, S9, Sodium phenobarbital and 5,6-benzoflavone, Method: Preincubation",inactive; negative
same,mutagenic call,"Test System: MOUSE LYMPHOMA, Strain/Indicator: L5178Y (TK+/TK-), Metabolic Activation: NONE, Method: SUSPENSION/PLATE",active; positive
same,mutagenic call,"Test System: UDS SYRIAN HAMSTER EMBRYO (SHE) CELLS, Strain/Indicator: THY INCORP, Metabolic Activation: NONE, Method: LIQUID SCINTILLATION COUNTING",active; positive
